# Source: patent EP0888340B1, “4-(BENZO-1,3-DIOXOLYL)-PYRROLIDINE-3-CARBOXYLIC ACID DERIVATIVES AS ENDOTHELIN ANTAGONISTS” (Abbott Laboratories, priority 1996, dated 1997)
# Structures can show the parent of a compound that is named as a salt.
# Biological target: T1, ETB Receptor (Sus scrofa, UniProt P35463)
# T1 construct: Porcine cerebellum was homogenized in 25 volumes (w/v) of 10 mM Hepes (pH 7.4); from tissue; host or cells: porcine cerebellum membranes
# T1 sequence (P35463 27-443): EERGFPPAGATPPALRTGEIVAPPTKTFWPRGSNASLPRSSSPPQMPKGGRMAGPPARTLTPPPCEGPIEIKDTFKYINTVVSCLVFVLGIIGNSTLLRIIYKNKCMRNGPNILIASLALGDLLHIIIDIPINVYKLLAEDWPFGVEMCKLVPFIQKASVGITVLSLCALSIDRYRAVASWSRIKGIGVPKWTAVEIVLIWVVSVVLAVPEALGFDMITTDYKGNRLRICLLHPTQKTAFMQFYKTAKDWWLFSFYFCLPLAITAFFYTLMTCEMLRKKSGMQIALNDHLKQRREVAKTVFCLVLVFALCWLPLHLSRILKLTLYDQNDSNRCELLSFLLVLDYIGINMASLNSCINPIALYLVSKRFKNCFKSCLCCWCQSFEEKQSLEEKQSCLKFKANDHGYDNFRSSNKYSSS
# Assay: ETB receptor binding assay: [125I]ET-3 binding to membranes
# Conditions: test compound 1 µM; displacement of 0.1 nM [125I]ET-3; Porcine cerebellum membranes; 4 hours at 25 °C
# Procedure: Preparation of membranes from Porcine cerebellum:
# Porcine cerebellum was homogenized in 25 volumes (w/v) of 10 mM Hepes (pH 7.4) containing 0.25 M sucrose and protease inhibitors (3 mM EDTA, 0.1 mM PMSF, and 5 µg/ml Pepstatin A) by 3-10 sec polytron at 13,500 rpm with 10 sec intervals. The mixture was centrifuged at 1000xg for 10 min. The supernatant was collected and centrifuged at 30,000xg for 30 min. The precipitate was resuspended in Buffer A (20 mM Tris, 100 mM NaCl, 10 mM MgCl2, pH 7.4) containing the aforementioned protease inhibitors and centrifuged again. The final pellet was resuspended in Buffer A containing protease inhibitors and stored at -80°C until used. Protein content was determined by the Bio-Rad dye-binding protein assay.
# [^125I]ET-3 binding to membranes:
# Binding assays were performed in 96-well microtiter plates pretreated with 0.1% BSA. Membranes prepared from cells were diluted ∼100 fold in Buffer B (20 mM Tris, 100 mM NaCl, 10 mM MgCl2, pH 7.4, with 0.2% BSA, 0.1 mM PMSF, 5 µg/mL Pepstatin A, 0.025% bacitracin, and 3 mM EDTA) to a final concentration of 0.2 mg/mL of protein. In competition studies, membranes (0.02 mg) were incubated with 0.1 nM of [^125I]ET-3 in Buffer B (final volume: 0.2 mL) in the presence of increasing concentrations of unlabeled ET-3 or a test compound for 4 hours at 25 °C. After incubation, unbound ligands were separated from bound ligands by a vacuum filtration method using glass-fiber filter strips in PHD cell harvesters (Cambridge Technology, Inc., MA), followed by washing the filter strips with saline (1 mL) for three times. Nonspecific binding was determined in the presence of 1 µM ET-1. The per cent inhibition at a concentration of 1 µM is shown. […]
row,SMILES,inhibition at 1 µM
1,"COc1ccc([C@H]2[C@H](C(=O)O)[C@@H](c3ccc4c(c3)OCO4)CN2CC(=O)Nc2c(C)cc(C)cc2C)cc1 (racemic) [Example 1, trans,trans-2-(4-Methoxyphenyl)-4-(1,3-benzodioxol-5-yl)-1-((2,4,6-trimethyl)phenylaminocarbonylmethyl)-pyrrolidine-3-carboxylic acid]",96.4%
2,"COc1ccc([C@H]2[C@H](C(=O)O)[C@@H](c3ccc4c(c3)OCO4)CN2CC(=O)Nc2c(C)cc(C)cc2C)cc1F (racemic) [Example 2, trans,trans-2-(3-Fluoro-4-methoxyphenyl)-4-(1,3-benzodioxol-5-yl)-1-((2,4,6-trimethyl)phenylaminocarbonylmethyl)-pyrrolidine-3-carboxylic acid]",91.5%
3,"CCCOc1ccc([C@H]2[C@H](C(=O)O)[C@@H](c3ccc4c(c3)OCO4)CN2CC(=O)Nc2c(C)cc(C)cc2C)cc1 (racemic) [Example 3, trans,trans-2-(4-Propoxyphenyl)-4-(1,3-benzodioxol-5-yl)-1-((2,4,6-trimethyl)phenylaminocarbonylmethyl)-pyrrolidine-3-carboxylic acid]",82.1%
4,"CCCOc1ccc([C@H]2[C@H](C(=O)O)[C@@H](c3ccc4c(c3)OCO4)CN2CC(=O)Nc2c(CC)cccc2CC)cc1 (racemic) [Example 5, trans,trans-2-(4-Propoxyphenyl)-4-(1,3-benzodioxol-5-yl)-1-((2,6-diethyl)phenylaminocarbonylmethyl)-pyrrolidine-3-carboxylic acid]",96.5%
5,"CCc1cccc(CC)c1NC(=O)CN1C[C@H](c2ccc3c(c2)OCO3)[C@@H](C(=O)O)[C@@H]1c1ccc(OC)c(F)c1 (racemic) [Example 6, trans,trans-2-(3-Fluoro-4-methoxyphenyl)-4-(1,3-benzodioxol-5-yl)-1-((2,6-diethyl)phenylaminocarbonylmethyl)-pyrrolidine-3-carboxylic acid]",92.9%
6,"CCOc1ccc([C@H]2[C@H](C(=O)O)[C@@H](c3ccc4c(c3)OCO4)CN2CC(=O)Nc2c(CC)cccc2CC)cc1F (racemic) [Example 7, trans,trans-2-(3-Fluoro-4-ethoxyphenyl)-4-(1,3-benzodioxol-5-yl)-1-((2,6-diethyl)phenylaminocarbonylmethyl)-pyrrolidine-3-carboxylic acid]",94.5%
7,"CCc1cccc(CC)c1NC(=O)CN1C[C@H](c2cc(OC)c3c(c2)OCO3)[C@@H](C(=O)O)[C@@H]1c1ccc(OC)c(F)c1 (racemic) [Example 8, trans,trans-2-(3-Fluoro-4-methoxyphenyl)-4-(7-methoxy-1,3-benzodioxol-5-yl)-1-((2,6-diethyl)phenylaminocarbonylmethyl)-pyrrolidine-3-carboxylic acid]",93.6%
8,"CCCOc1ccc([C@H]2[C@H](C(=O)O)[C@@H](c3ccc4c(c3)OCO4)CN2CC(=O)Nc2c(CC)cccc2CC)cc1OC (racemic) [Example 9, trans,trans-2-(3-methoxy-4-propoxyphenyl)-4-(1,3-benzodioxol-5-yl)-1-((2,6-diethyl)phenylaminocarbonylmethyl)-pyrrolidine-3-carboxylic acid]",94.8%
9,"CCOc1ccc([C@H]2[C@H](C(=O)O)[C@@H](c3ccc4c(c3)OCO4)CN2CC(=O)Nc2c(CC)cccc2CC)cc1 (racemic) [Example 10, trans,trans-2-(4-ethoxyphenyl)-4-(1,3-benzodioxol-5-yl)-1-((2,6-diethyl)phenylaminocarbonylmethyl)-pyrrolidine-3-carboxylic acid]",95.2%
10,"CCCOc1ccc([C@H]2[C@H](C(=O)O)[C@@H](c3cc(OC)c4c(c3)OCO4)CN2CC(=O)Nc2c(CC)cccc2CC)cc1 (racemic) [Example 12, trans,trans-2-(4-propoxyphenyl)-4-(7-methoxy-1,3-benzodioxol-5-yl)-1-((2,6-diethyl)phenylaminocarbonylmethyl)-pyrrolidine-3-carboxylic acid]",96.7%
11,"CCCOc1ccc([C@H]2[C@H](C(=O)O)[C@@H](c3cc(OC)c4c(c3)OCO4)CN2CC(=O)Nc2c(CC)cccc2CC)cc1OC [Example 13, trans,trans-2-(3-methoxy-4-propoxyphenyl)-4-(7-methoxy-1,3-benzodioxol-5-yl)-1-((2,6-diethyl)phenylaminocarbonylmethyl)-pyrrolidine-3-carboxylic acid]",91.3%
12,"CCc1cc(Br)cc(CC)c1NC(=O)CN1C[C@H](c2ccc3c(c2)OCO3)[C@@H](C(=O)O)[C@@H]1c1ccc(OC)cc1 [Example 17, trans,trans-2-(4-methoxyphenyl)-4-(1,3-benzodioxol-5-yl)-1-((4-bromo-2,6-diethyl)phenylaminocarbonylmethyl)-pyrrolidine-3-carboxylic acid]",97.1%
13,"CCc1cc(CC)c(NC(=O)CN2C[C@H](c3ccc4c(c3)OCO4)[C@@H](C(=O)O)[C@@H]2c2ccc(OC)cc2)c(CC)c1 [Example 19, trans,trans-2-(4-methoxyphenyl)-4-(1,3-benzodioxol-5-yl)-1-((2,4,6-triethyl)phenylaminocarbonylmethyl)-pyrrolidine-3-carboxylic acid]",94.9%
14,"CCCOc1ccc(C2C(C(=O)O)C(c3ccc4c(c3)OCO4)CN2CC(=O)Nc2c(CC)cccc2CC)cc1 [Example 20, [2R,3R,4S]2-(4-Propoxyphenyl)-4-(1,3-benzodioxol-5-yl)-1-(N-((2,6-diethyl)phenylaminocarbonylmethyl)-pyrrolidine-3-carboxylic acid]",95.5%

# Results, then the molecule that gave them:
row,inhibition at 1 µM,SMILES
1,94%,"CCc1cccc(CC)c1NC(=O)CN1C[C@H](c2ccc3c(c2)OCO3)[C@@H](C(=O)O)[C@@H]1c1ccc(OC)cc1 (racemic) [Example 4, trans,trans-2-(4-Methoxyphenyl)-4-(1,3-benzodioxol-5-yl)-1-((2,6-diethyl)phenylaminocarbonylmethyl)-pyrrolidine-3-carboxylic acid]"
2,96%,"COc1ccc([C@H]2[C@H](C(=O)O)[C@@H](c3ccc4c(c3)OCO4)CN2CC(=O)Nc2c(C)cccc2C)cc1 (racemic) [Example 11, trans,trans-2-(4-methoxyphenyl)-4-(1,3-benzodioxol-5-yl)-1-((2,6-dimethyl)phenylaminocarbonylmethyl)-pyrrolidine-3-carboxylic acid]"
3,96.6%,"COc1ccc([C@H]2[C@H](C(=O)O)[C@@H](c3ccc4c(c3)OCO4)CN2CC(=O)Nc2c(Br)cccc2Br)cc1 [Example 14, trans,trans-2-(4-methoxyphenyl)-4-(1,3-benzodioxol-5-yl)-1-((2,6-dibromo)phenylaminocarbonylmethyl)-pyrrolidine-3-carboxylic acid]"
4,93.4%,"CCc1cccc(CC)c1NC(=O)CN1C[C@H](c2ccc3c(c2)OCO3)[C@@H](C(=O)O)[C@@H]1c1ccc(OC)cc1 [Example 15, [2R,3R,4S]2-(4-Methoxyphenyl)-4-(1,3-benzodioxol-5-yl)-1-(N-(2,6-diethyl)phenylaminocarbonylmethyl)-pyrrolidine-3-carboxylic acid, hydrochloride salt]"
5,92.3%,"COc1ccc([C@H]2[C@H](C(=O)O)[C@@H](c3ccc4c(c3)OCO4)CN2CC(=O)Nc2c(OC)cccc2OC)cc1 [Example 16, trans,trans-2-(4-methoxyphenyl)-4-(1,3-benzodioxol-5-yl)-1-((2,6-dimethoxy)phenylaminocarbonylmethyl)-pyrrolidine-3-carboxylic acid]"
6,94.9%,"CCc1cccc(C)c1NC(=O)CN1C[C@H](c2ccc3c(c2)OCO3)[C@@H](C(=O)O)[C@@H]1c1ccc(OC)cc1 [Example 18, trans,trans-2-(4-methoxyphenyl)-4-(1,3-benzodioxol-5-yl)-1-((2-ethyl-6-methyl)phenylaminocarbonylmethyl)-pyrrolidine-3-carboxylic acid]"
7,97.1%,"COc1ccc([C@H]2[C@H](C(=O)O)[C@@H](c3ccc4c(c3)OCO4)CN2CC(=O)Nc2c(C(C)C)cccc2C(C)C)cc1 [Example 21, trans,trans-2-(4-methoxyphenyl)-4-(1,3-benzodioxol-5-yl)-1-((2,6-diisopropyl)phenylaminocarbonylmethyl)-pyrrolidine-3-carboxylic acid]"
